Reference: paper PMC7004140, “In vitro hepatotoxicity of Petasites hybridus extract (Ze 339) depends on the concentration, the cytochrome activity of the cell system, and the species used” (Phytotherapy Research, 2019)

Legend:
[1] = test system: S9 fractions from rat, dog and human; assay: Metabolism by liver S9 fractions from different species; format: in vitro ADME, rat (Sprague Dawley), dog (beagle); conditions: 20 μM, 60 min incubation
Text: (§1) The metabolism of petasin, isopetasin, and neopetasin was investigated using three different S9 fractions originating from three different species (isolated from rat, dog, and human liver homogenates containing cytochrome P450 isoforms) and isolated cytochromes of two different species (human and rat; rat analogues of the respective human cytochromes were used). For the expression of the different cytochromes, a baculovirus expression system was used according to supplier's manual. The S9 fractions or respectively single P450 cytochromes were used to mimic the liver metabolism by in vitro incubation.
(§2) The assay was carried out in triplicate in 1.5 ml glass vials with a final concentration of 20 μM of petasin, isopetasin, and neopetasin. The incubation was performed in a 37°C warm water bath. S9 fractions were thawed slowly on ice. Four different approaches were pursued by testing: (a) petasin, neopetasin, and isopetasin before (0 min) and after 60 min incubations with S9 fraction; (b) petasin, neopetasin, and isopetasin without S9 fraction after 60 min incubation; (c) vehicle as negative controls; and (d) cofactors of S9 fraction after 60‐min incubation.
(§3) A mixture of NADPH regeneration systems A (20‐fold) and B (100‐fold), phosphate buffer, and H2O was added, preincubated at 37°C, and shaken gently for 5 min. Afterwards, the recommended amount between 10 and 40 pmol/ml of enzyme or enzyme mixture was added according to manufacturer's instruction and incubated for further 60 min at 37°C and gently shaken. Afterwards, the reactions were stopped by addition of acetonitrile (400 μl). For the control sample, acetonitrile was added at 0 min incubation. The samples were centrifuged for 3 min at 10,000 × g. The supernatant was transferred to high‐performance liquid chromatography vials and analyzed by ultra‐performance liquid chromatography mass spectrometry (UPLC/MS). The UPLC analysis was performed with an UPLC Acquity H Class from Waters (Waters Corporation, Switzerland) including a quaternary high‐pressure gradient pump, an automatic sample injector, and a column thermostat. […]

CYP1A2 (human) = target: T1, CYP1A2 (human) (Homo sapiens, UniProt P05177); assay: Metabolism by isolated human CYP1A2; format: in vitro ADME; conditions: petasins 20 μM, 60 min
T1 construct: purchased BD Gentest (Switzerland); host or cells: baculovirus expression system
T1 sequence (P05177 1-516): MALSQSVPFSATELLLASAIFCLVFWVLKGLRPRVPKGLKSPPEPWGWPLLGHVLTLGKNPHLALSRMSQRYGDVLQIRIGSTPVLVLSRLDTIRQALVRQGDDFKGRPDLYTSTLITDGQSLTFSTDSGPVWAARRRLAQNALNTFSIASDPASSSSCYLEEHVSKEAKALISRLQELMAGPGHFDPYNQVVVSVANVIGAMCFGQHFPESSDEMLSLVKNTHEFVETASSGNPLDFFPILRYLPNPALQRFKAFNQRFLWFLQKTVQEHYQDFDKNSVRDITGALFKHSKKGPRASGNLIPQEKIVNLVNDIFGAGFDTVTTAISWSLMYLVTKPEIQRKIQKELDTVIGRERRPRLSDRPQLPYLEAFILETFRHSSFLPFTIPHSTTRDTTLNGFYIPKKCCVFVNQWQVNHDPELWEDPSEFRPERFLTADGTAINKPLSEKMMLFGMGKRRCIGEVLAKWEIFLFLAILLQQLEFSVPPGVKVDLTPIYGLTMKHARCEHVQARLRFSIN
Text: as §1, §2, §3

CYP2B6 (human) = target: T2, CYP2B6 (human) (Homo sapiens, UniProt P20813); assay: Metabolism by isolated human CYP2B6; format: in vitro ADME; conditions: petasins 20 μM, 60 min
T2 construct: purchased BD Gentest (Switzerland); host or cells: baculovirus expression system
T2 sequence (P20813 1-491): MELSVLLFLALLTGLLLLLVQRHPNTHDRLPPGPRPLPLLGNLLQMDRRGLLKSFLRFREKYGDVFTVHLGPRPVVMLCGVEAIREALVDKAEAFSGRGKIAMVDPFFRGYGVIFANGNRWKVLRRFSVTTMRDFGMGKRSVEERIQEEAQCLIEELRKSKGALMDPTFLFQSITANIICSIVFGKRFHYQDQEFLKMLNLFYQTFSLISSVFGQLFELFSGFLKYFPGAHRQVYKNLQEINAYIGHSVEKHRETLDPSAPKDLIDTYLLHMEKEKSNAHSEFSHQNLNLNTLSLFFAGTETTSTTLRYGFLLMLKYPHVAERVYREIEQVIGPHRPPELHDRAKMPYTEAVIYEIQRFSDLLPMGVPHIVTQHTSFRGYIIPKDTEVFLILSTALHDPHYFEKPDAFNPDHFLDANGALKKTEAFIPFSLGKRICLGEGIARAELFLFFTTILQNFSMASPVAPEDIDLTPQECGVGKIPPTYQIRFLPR
Text: as §1, §2, §3

CYP2C11 (rat) = target: T3, CYP2C11 (rat) (Rattus norvegicus, UniProt P08683); assay: Metabolism by isolated rat CYP2C11; format: in vitro ADME; conditions: petasins 20 μM, 60 min
T3 construct: purchased BD Gentest (Switzerland); host or cells: baculovirus expression system
T3 sequence (P08683 1-500): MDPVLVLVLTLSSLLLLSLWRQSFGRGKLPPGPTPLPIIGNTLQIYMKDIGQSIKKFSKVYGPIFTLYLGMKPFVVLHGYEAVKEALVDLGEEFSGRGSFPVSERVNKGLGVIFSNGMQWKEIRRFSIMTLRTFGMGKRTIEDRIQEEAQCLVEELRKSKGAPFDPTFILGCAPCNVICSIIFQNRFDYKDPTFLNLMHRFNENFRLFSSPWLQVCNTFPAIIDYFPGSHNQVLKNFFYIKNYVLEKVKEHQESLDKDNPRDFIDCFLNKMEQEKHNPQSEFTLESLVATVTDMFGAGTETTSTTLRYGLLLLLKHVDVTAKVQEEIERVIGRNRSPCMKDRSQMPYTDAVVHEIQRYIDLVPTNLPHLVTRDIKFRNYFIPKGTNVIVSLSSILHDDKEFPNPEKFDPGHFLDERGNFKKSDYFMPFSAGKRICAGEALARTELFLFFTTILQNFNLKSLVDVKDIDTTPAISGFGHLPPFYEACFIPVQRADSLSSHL
Text: as §1, §2, §3

Row | rank order of extent of metabolism by S9 fractions of different species [1] | extent of metabolism by CYP1A2 (human) (CYP1A2 (human)) [%] | extent of metabolism by CYP2B6 (human) (CYP2B6 (human)) [%] | extent of metabolism by CYP2C11 (rat) (CYP2C11 (rat)) [%] | SMILES
1 | rat>dog>human | 21 | 13 | 84 | C/C=C(/C)C(=O)O[C@@H]1CCC2=CC(=O)C(=C(C)C)C[C@]2(C)[C@H]1C [isopetasin]
2 | rat>dog>human | 4 | 50 | 55 | C=C(C)[C@@H]1C[C@@]2(C)C(=CC1=O)CC[C@@H](OC(=O)/C(C)=C\C)[C@@H]2C [petasin]
3 | rat>dog>human | < 1 | 20 | 74 | C=C(C)[C@H]1C[C@@]2(C)C(=CC1=O)CC[C@@H](OC(=O)/C(C)=C\C)[C@@H]2C [neopetasin]
